Test results from US3997549A, “N-arylsulfenylated derivatives of benzofuranyl methylcarbamates” (priority 1973, dated 1976).
Converted amounts (≈) assume the structure as drawn. Read-outs that look alike come from different tables or passages of the source.

Columns and labels:
Culex fatigans = test: whole plant or invertebrate; conditions: Culex quinquefasciatus, 24 h, read-out: Mosquitoes LC50
Experimental: The appropriate amount of stock solution was added with stirring to 100 ml of tap water and 20-25 fourth instar larvae of Culex fatigans were placed in the solution. After twenty-four hours, the counts were taken. Larvae not able to rise to the surface on touch were counted as dead. Each concentration was run in duplicate and each material was run on two or three different days. The average percent mortality was plotted against the logarithm of the concentration (in ppm) and the LC50 value determined by inspection.

in vivo = conditions: mouse, po
Experimental: Acute oral toxicity of the compounds of the present invention to mice was determined after the manner of Hollingworth, Fukuto, and Metcalf in J. Agr. […] A dose of 0.25 ml of each solution was administered to each of four female white Swiss mice using the "bolus" - tipped syringe. […] Final mortality determinations were made forty-eight hours after treatment.

southern army worm [1] = conditions: 2880 min
Mexican bean beetle [2] = test: whole plant or invertebrate; conditions: Epilachna varivestis, 48 h, read-out: % Kill, BB (systemic)
pea aphid [3] = test: whole plant or invertebrate; conditions: Acyrthosiphon pisum, 48 h, read-out: % Kill, PA (systemic)
two-spotted spider mite [4] = test: whole plant or invertebrate; conditions: Tetranychus urticae, 48 h
houseflies = test: whole plant or invertebrate; conditions: Musca domestica, topical, 24 h, read-out: Houseflies LD50
Experimental: Toxicity of the compounds of the present invention to houseflies was tested using the technique described by March and Metcalf in Bull. Calif. State Dept. Agr. […] Adult female houseflies were treated with one drop of acetone solution, applied to the prothorax, using a syringe calibrated to deliver 1.00 ± 0.05 mm^3 drops. Twenty flies were treated at each dosage, each test compound was applied at 8 to 10 dosage levels. Each test was replicated three times. […] A one-inch square of cotton saturated with 40% sugar solution was provided for food in each carton. The cartons of flies were held in a constant temperature chamber at 60° F and 60% relative humidity for 24 hours before mortality counts were made. Flies totally unable to make crawling or walking movements were counted as dead. LD50 values were calculated in the conventional manner.

pea aphid [5] = test: Initial contact activity, pea aphid; conditions: Acyrthosiphon pisum, 48 h, read-out: % Kill, PA (initial contact)
pea aphid [6] = test: Residual contact activity, pea aphid; conditions: Acyrthosiphon pisum, 48 h, read-out: % Kill, PA (residual contact)
milkweed bug [7] = test: Initial contact activity, milkweed bug; conditions: Oncopeltus fasciatus, 48 h, read-out: % Kill, MWB (initial contact)
plum curculio [8] = test: Initial contact activity, plum curculio; conditions: Conotrachelus nenuphar, 48 h, read-out: % Kill, PC (initial contact)
milkweed bug [9] = test: Residual contact activity, milkweed bug; conditions: Oncopeltus fasciatus, 48 h, read-out: % Kill, MWB (residual contact)
granary weevil [10] = test: Initial contact activity, granary weevil; conditions: Sitophilus granarius, 48 h, read-out: % Kill, GW (initial contact)
plum curculio [11] = test: Residual contact activity, plum curculio; conditions: Conotrachelus nenuphar, 48 h, read-out: % Kill, PC (residual contact)
granary weevil [12] = test: Residual contact activity, granary weevil; conditions: Sitophilus granarius, 48 h, read-out: % Kill, GW (residual contact)
southern army worm [13] = test: Initial contact activity, southern army worm; conditions: 1250 ppm, 48 h exposure
Mexican bean beetle [14] = test: Initial contact activity, Mexican bean beetle; conditions: Epilachna varivestis, 48 h, read-out: % Kill, BB (initial contact)
southern army worm [15] = test: Residual contact activity, southern army worm; conditions: 1250 ppm; 7 days; 2880 min
Mexican bean beetle [16] = test: Residual contact activity, Mexican bean beetle; conditions: Epilachna varivestis, 48 h, read-out: % Kill, BB (residual contact)
two-spotted spider mite [17] = test: Initial contact activity, two-spotted spider mite; conditions: Tetranychus urticae, 48 h, read-out: % Kill, SM (initial contact)
two-spotted spider mite [18] = test: Residual contact activity, two-spotted spider mite; conditions: Tetranychus urticae, 48 h, read-out: % Kill, SM (residual contact)
[19] = 39 ppm soil watering, group printed before the slash (separate test vs carbofuran)
[20] = read-out: % Kill, SM (systemic)

Row | SMILES | LC50 (Culex fatigans) [ng/mL] | LD50 at 48 h (in vivo) [mg/kg] | % Kill, AW (systemic) (southern army worm [1]; [19]) [%] | % Kill, AW (systemic) (southern army worm [1]; 156 ppm soil watering) [%] | mortality at 39 ppm (Mexican bean beetle [2]) [%] | mortality at 156 ppm (Mexican bean beetle [2]) [%] | mortality at 39 ppm (pea aphid [3]) [%] | mortality at 156 ppm (pea aphid [3]) [%] | LD50 (houseflies) [mg/kg] | mortality at 39 ppm (two-spotted spider mite [4]; [20]) [%] | mortality at 156 ppm (two-spotted spider mite [4]; [20]) [%] | mortality at 1250 ppm (pea aphid [5]) [%] | mortality at 1250 ppm (pea aphid [6]) [%] | mortality at 1250 ppm (milkweed bug [7]) [%] | mortality at 1250 ppm (plum curculio [8]) [%] | mortality at 1250 ppm (milkweed bug [9]) [%] | mortality at 1250 ppm (granary weevil [10]) [%] | mortality at 1250 ppm (plum curculio [11]) [%] | mortality at 1250 ppm (granary weevil [12]) [%] | % Kill, AW (initial contact) (southern army worm [13]) [%] | also measured
1 | CNC(=O)Oc1cccc2c1OC(C)(C)C2 [Carbofuran, 2,3-dihydro-2,2-dimethyl-7-benzofuranyl methylcarbamate, reference compound] | 52 (≈ 0.235 µM) | 2 | 50 | 100 | 100 | 100 | 100 | 100 |  |  |  |  |  |  |  |  |  |  |  |  | % Kill, AW (systemic) (southern army worm [1]; 39 ppm soil watering, separate test vs carbofuran): 100%; mortality at 39 ppm (two-spotted spider mite [4]; read-out: % Kill, SM (systemic), 39 ppm soil watering, group printed before the slash (separate test vs carbofuran)): 5%; mortality at 39 ppm (two-spotted spider mite [4]; read-out: % Kill, SM (systemic), 39 ppm soil watering, separate test vs carbofuran): 3%; mortality at 156 ppm (two-spotted spider mite [4]; read-out: % Kill, SM (systemic), 156 ppm soil watering, group printed before the slash (separate test vs carbofuran)): 43%; mortality at 156 ppm (two-spotted spider mite [4]; read-out: % Kill, SM (systemic), 156 ppm soil watering, separate test vs carbofuran): 70%
2 | CN(Sc1ccc(Cl)cc1)C(=O)Oc1cccc2c1OC(C)(C)C2 [Example V, 2,3-Dihydro-2,2-dimethyl-7-benzofuranyl (4-chlorophenylthio)(methyl)carbamate] | 2 (≈ 0.0055 µM) | 50 | 50 | 80 | 95 | 100 | 100 | 100 | 12.5 | 29 | 33 | 100 | 95 | 100 | 100 | 100 | 100 | 95 | 100 | 100 | mortality at 1250 ppm (Mexican bean beetle [14]): 100%; % Kill, AW (residual contact) (southern army worm [15]): 100%; mortality at 1250 ppm (Mexican bean beetle [16]): 100%; mortality at 1250 ppm (two-spotted spider mite [17]): 100%; mortality at 1250 ppm (two-spotted spider mite [18]): 5%
3 | CN(Sc1ccc(C#N)cc1)C(=O)Oc1cccc2c1OC(C)(C)C2 [XV, 2,3-Dihydro-2,2-dimethyl-7-benzofuranyl (4-cyanophenylthio)(methyl)carbamate] | 22 (≈ 0.0621 µM) | 25 to 50 |  |  |  |  |  |  | 22.5 |  |  |  |  |  |  |  |  |  |  |  | 
4 | CN(Sc1nc2ccccc2s1)C(=O)Oc1cccc2c1OC(C)(C)C2 [Example VII, 2,3-Dihydro-2,2-dimethyl-7-benzofuranyl (2-benzothiazolylthio)(methyl)carbamate] | 9.5 (≈ 0.0246 µM) | 50 | 0 | 60 | 68 | 81 | 100 | 100 | 8.5 | 3 | 2 | 100 | 0 | 100 | 100 | 100 | 100 | 55 | 100 | 62 | mortality at 1250 ppm (Mexican bean beetle [14]): 91%; % Kill, AW (residual contact) (southern army worm [15]): 100%; mortality at 1250 ppm (Mexican bean beetle [16]): 100%; mortality at 1250 ppm (two-spotted spider mite [17]): 72%; mortality at 1250 ppm (two-spotted spider mite [18]): 5%
5 | CN(Sc1ccc(Br)cc1)C(=O)Oc1cccc2c1OC(C)(C)C2 [VIII, 2,3-Dihydro-2,2-dimethyl-7-benzofuranyl (4-bromophenylthio)(methyl)carbamate] | 4 (≈ 0.0098 µM) | 50 to 75 |  |  |  |  |  |  | 9 |  |  |  |  |  |  |  |  |  |  |  | 
6 | COc1ccc(SN(C)C(=O)Oc2cccc3c2OC(C)(C)C3)cc1 [IX, 2,3-Dihydro-2,2-dimethyl-7-benzofuranyl (4-methoxyphenylthio)(methyl)carbamate] | 6 (≈ 0.0167 µM) | 25 to 50 |  |  |  |  |  |  | 7.8 |  |  |  |  |  |  |  |  |  |  |  | 
7 | Cc1cc(Br)ccc1SN(C)C(=O)Oc1cccc2c1OC(C)(C)C2 [XI, 2,3-Dihydro-2,2-dimethyl-7-benzofuranyl (4-bromo-2-methylphenylthio)(methyl)carbamate] | 2.5 (≈ 0.00592 µM) | 100 to 150 | 75 | 100 | 95 | 100 | 100 | 100 | 11.2 | 23 | 28 | 35 | 10 | 100 | 100 | 95 | 100 | 40 | 100 | 100 | mortality at 1250 ppm (Mexican bean beetle [14]): 100%; % Kill, AW (residual contact) (southern army worm [15]): 100%; mortality at 1250 ppm (Mexican bean beetle [16]): 100%; mortality at 1250 ppm (two-spotted spider mite [17]): 9%; mortality at 1250 ppm (two-spotted spider mite [18]): 3%
8 | Cc1ccc(SN(C)C(=O)Oc2cccc3c2OC(C)(C)C3)c(C)c1 [XIII, 2,3-Dihydro-2,2-dimethyl-7-benzofuranyl (2,4-dimethylphenylthio)(methyl)carbamate] | 3 (≈ 0.00839 µM) | 50 to 100 |  |  |  |  |  |  | 9 |  |  |  |  |  |  |  |  |  |  |  | 
9 | CN(Sc1ccc2c(c1)OCO2)C(=O)Oc1cccc2c1OC(C)(C)C2 [XIV, 2,3-Dihydro-2,2-dimethyl-7-benzofuranyl (methyl)(3,4-methylenedioxyphenylthio)carbamate] | 6.5 (≈ 0.0174 µM) | 10 to 25 | 14 | 64 | 90 | 94 | 100 | 100 | 5 | 10 | 16 | 100 | 10 | 100 | 100 | 100 | 100 | 80 | 100 | 100 | mortality at 1250 ppm (Mexican bean beetle [14]): 100%; % Kill, AW (residual contact) (southern army worm [15]): 100%; mortality at 1250 ppm (Mexican bean beetle [16]): 100%; mortality at 1250 ppm (two-spotted spider mite [17]): 38%; mortality at 1250 ppm (two-spotted spider mite [18]): 2%
10 | CC(C)c1ccccc1SN(C)C(=O)Oc1cccc2c1OC(C)(C)C2 [XII, 2,3-Dihydro-2,2-dimethyl-7-benzofuranyl (2-isopropylphenylthio) (methyl)carbamate] | 3 (≈ 0.00808 µM) | 50 to 75 |  |  |  |  |  |  | 8.3 |  |  |  |  |  |  |  |  |  |  |  | 
11 | CN(Sc1ccccc1)C(=O)Oc1cccc2c1OC(C)(C)C2 [Example I, 2,3-Dihydro-2,2-dimethyl-7-benzofuranyl (methyl)(phenylthio)carbamate] | 4.5 (≈ 0.0137 µM) | 25 to 50 |  |  |  |  |  |  | 9.3 |  |  |  |  |  |  |  |  |  |  |  | 
12 | CN(Sc1ccc2ccccc2c1)C(=O)Oc1cccc2c1OC(C)(C)C2 [XVII, 2,3-Dihydro-2,2-dimethyl-7-benzofuranyl (methyl)(2-naphthylthio)carbamate] | 3.2 (≈ 0.00843 µM) | 40 |  |  |  |  |  |  | 8 |  |  |  |  |  |  |  |  |  |  |  | 
